According to patent publication US11078228B2, “Ectonucleotidase inhibitors and methods of use thereof” (Calithera Biosciences, Inc., priority 2018, dated 2021):
Like-named read-outs stand apart in the source and are kept apart here.

Tests used:
Human CD8+ T cells [1] = test: Proliferation of human CD8+ T cells, CellTrace CFSE flow cytometry; format: cell-based; details: 100 μM, 4 days
Procedure: (§1) Viability of EG7 and A375 cells treated with 100 μM Compound 9 was measured using CellTiter-Glo after 3 days. Proliferation of human CD8+ T cells was measured by flow cytometry after 4 days of treatment with 100 μM Compound 9 using CellTrace CFSE Cell Proliferation Kit.

[2] = tested on: Eurofins Safety Screen Panel (87 targets); test: Eurofins Safety Screen Panel; details: 10 μM
Procedure: (§2) Using Compound 9, the activity of cell surface CD39 was assessed using K562 cells expressing human CD39 and Kinase-Glo. Activity of recombinant human ENTPD2 and ENTPD3 was assessed using a malachite green assay. […] Compound 9 was screened in the Eurofins Safety Screen Panel and the Eurofins Express Diversity Kinase Profile Panel. In the Safety Panel, 1/87 targets were inhibited at >50% at 10 μM of Compound 9. The PDE3 enzyme was inhibited at 59%.

recombinant CD73 [3] = target: T1, recombinant CD73 (Homo sapiens (Human), UniProt P21589); test: Potency against recombinant CD73, malachite green assay; format: biochemical
Procedure: (§3) The potency of Compound 9 was evaluated against recombinant CD73 and CD73-expressing SK-MEL-28 cells using a malachite green assay. Inhibition of CD73 in plasma was measured using LC/MS to assess conversion of ^15N5-AMP into ^15N5-ADO. FIG. 4A indicates the nanomolar inhibition of CD73 cells from both human and mouse sources. […] Inhibition of CD73 in plasma was measured using LC/MS to assess conversion of ^15N5-AMP into ^15N5-ADO.
Target sequence in this assay (P21589 27-574): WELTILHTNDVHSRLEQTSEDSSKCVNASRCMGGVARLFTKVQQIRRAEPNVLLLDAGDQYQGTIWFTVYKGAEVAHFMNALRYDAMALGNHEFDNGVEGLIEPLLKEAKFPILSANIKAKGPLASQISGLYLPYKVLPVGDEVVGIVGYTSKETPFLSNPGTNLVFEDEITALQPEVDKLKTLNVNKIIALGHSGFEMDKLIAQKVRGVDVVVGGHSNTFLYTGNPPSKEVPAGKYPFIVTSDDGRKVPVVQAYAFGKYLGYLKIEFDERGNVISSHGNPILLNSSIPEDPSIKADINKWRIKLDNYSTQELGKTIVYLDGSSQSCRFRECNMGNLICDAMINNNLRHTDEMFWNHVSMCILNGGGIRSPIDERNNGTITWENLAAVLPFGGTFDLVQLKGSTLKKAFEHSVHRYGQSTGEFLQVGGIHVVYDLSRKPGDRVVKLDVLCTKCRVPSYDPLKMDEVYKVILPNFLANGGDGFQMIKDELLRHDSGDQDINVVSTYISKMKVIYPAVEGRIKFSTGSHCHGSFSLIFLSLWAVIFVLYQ

mouse plasma CD73 = mouse plasma CD73 (Mus musculus (Mouse), UniProt Q61503); test: Inhibition of CD73 in mouse plasma (IC50); format: biochemical
Chain of mouse plasma CD73 (Q61503 29-576): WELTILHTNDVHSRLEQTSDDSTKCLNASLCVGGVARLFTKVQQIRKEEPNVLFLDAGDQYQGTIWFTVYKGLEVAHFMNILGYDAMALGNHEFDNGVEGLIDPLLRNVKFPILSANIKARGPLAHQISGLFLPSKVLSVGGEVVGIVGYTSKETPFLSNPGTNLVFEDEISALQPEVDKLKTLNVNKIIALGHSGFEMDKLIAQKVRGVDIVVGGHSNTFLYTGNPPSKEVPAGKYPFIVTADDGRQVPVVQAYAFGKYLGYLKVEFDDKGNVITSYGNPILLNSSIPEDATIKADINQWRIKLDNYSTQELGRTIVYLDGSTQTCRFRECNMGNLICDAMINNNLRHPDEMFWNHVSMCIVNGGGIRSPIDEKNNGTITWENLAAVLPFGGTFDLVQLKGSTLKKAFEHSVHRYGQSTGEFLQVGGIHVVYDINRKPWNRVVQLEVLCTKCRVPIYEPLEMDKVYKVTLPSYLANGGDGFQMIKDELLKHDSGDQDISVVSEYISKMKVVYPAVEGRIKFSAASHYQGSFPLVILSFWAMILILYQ
Procedure: as §3
Single dose Compound 9 (50 mg/kg) was administered orally to mice and plasma was collected at indicated time points. Compound 9 levels were measured by LC/MS. Plasma was harvested from mice 2 hours post dose and spiked with ^15N5-AMP and a TNAP inhibitor. ^15N5-ADO levels were measured by LC/MS.

Human CD8+ T cells [4] = test: Reversal of AMP-mediated suppression of CD8+ T cells; format: cell-based; details: T-cell, 96 h, 4 days
Procedure: Human CD8+ T cells were labeled with CellTrace CFSE and then pre-incubated with an adenosine deaminase inhibitor and Compound 9 or vehicle for 20 minutes. 20 μM AMP was added for assessing T cell proliferation and CD25 expression. 10 μM AMP was added for assessing cytokine production. T cells were activated with α-CD3, α-CD28, and hIL2. After 4 days, proliferation and CD25 expression were assessed by flow cytometry and cytokine levels in the supernatant were measured by ELISA. EC50s were determined using a four-parameter dose-response curve equation.

[5] = target: CD73 activity in cancer patient serum (Homo sapiens (Human), UniProt P21589); test: CD73 activity in cancer patient serum, LC/MS conversion of 15N5-AMP to 15N5-ADO; format: biochemical; details: TNAP inhibitor present
Chain of CD73 activity in cancer patient serum (P21589 27-574): as the sequence (P21589 27-574) above
Procedure: Serum was procured from Discovery Life Sciences. Serum from head and neck squamous cell carcinoma (HNSCC), ovarian cancer, triple-negative breast cancer and esophageal cancer patients were incubated with a serial dilution of Compound 9 in the presence of a TNAP inhibitor. Conversion of ^15N5-AMP to ^15N5-ADO was measured by LC/MS. FIG. 10A depicts the sub-nanomolar inhibition of HNSCC serum. FIG. 10B depicts the sub-nanomolar inhibition of ovarian cancer serum. FIG. 10C depicts the sub-nanomolar inhibition of TNBC serum. FIG. 10D depicts the sub-nanomolar inhibition of esophageal cancer serum.

human CD39 = human CD39 (Homo sapiens (Human), UniProt P49961); test: Cell surface CD39 activity, K562 cells expressing human CD39, Kinase-Glo; format: cell-based
Chain of human CD39 (P49961 whole entry): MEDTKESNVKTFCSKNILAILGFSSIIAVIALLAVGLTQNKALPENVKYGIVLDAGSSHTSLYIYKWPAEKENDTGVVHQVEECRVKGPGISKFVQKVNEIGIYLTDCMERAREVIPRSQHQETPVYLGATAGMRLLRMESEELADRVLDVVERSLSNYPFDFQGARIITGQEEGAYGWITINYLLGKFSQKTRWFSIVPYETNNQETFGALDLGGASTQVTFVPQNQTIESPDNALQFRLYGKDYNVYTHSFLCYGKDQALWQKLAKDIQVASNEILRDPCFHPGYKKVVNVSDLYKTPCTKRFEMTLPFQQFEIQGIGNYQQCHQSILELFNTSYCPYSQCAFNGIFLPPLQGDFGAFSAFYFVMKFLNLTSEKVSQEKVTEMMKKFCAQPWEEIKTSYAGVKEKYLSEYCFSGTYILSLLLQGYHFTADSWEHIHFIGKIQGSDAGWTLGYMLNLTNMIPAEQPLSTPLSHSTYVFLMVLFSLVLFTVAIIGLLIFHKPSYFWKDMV
Procedure: as §2

[6] = target: CD73-expressing SK-MEL-28 cells (Homo sapiens (Human), UniProt P21589); test: Human CD73 cell surface assay, CD73-expressing SK-MEL-28 cells, malachite green; format: cell-based
Chain of CD73-expressing SK-MEL-28 cells (P21589 27-574): as the sequence (P21589 27-574) above
Procedure: as §3

human plasma CD73 = human plasma CD73 (Homo sapiens (Human), UniProt P21589); test: Inhibition of CD73 in human plasma, LC/MS conversion of 15N5-AMP into 15N5-ADO; format: biochemical
Chain of human plasma CD73 (P21589 27-574): as above
Procedure: as §3

recombinant CD73 [7] = target: T1, recombinant CD73; test: Assay 2: Inhibition of the CD73 enzyme in vitro (0.05 nM CD73, 1 hour 37° C., Malachite Green); format: biochemical; details: 0.05 nM CD73, 50 μM AMP, 1 hour at 37° C.
Outline: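 Free phosphate was quantified from absorbance at 630 nm against a phosphate standard curve. This was read 5 min after Malachite Green was added at room temperature. Beforehand, the recombinant soluble enzyme reacted for 1 hour at 37° C.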
Target sequence in this assay (P21589 27-547): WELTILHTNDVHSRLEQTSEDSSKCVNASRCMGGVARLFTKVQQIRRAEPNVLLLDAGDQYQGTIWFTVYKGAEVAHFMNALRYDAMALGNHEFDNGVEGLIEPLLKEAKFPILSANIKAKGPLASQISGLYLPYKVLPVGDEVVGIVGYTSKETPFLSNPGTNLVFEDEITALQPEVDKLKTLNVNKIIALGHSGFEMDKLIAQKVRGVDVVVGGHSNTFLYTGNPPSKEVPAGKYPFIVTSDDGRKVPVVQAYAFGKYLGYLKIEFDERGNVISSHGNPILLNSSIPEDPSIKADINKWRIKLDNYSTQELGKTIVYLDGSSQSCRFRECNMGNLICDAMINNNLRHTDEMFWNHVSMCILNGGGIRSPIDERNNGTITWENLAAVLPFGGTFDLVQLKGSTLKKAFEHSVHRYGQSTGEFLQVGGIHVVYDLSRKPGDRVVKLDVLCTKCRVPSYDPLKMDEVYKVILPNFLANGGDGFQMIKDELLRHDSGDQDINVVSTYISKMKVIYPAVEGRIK

A375 cells = test: Viability of A375 cells, CellTiter-Glo; format: cell-based, human; details: 100 μM, 3 days
Procedure: as §1

recombinant human ENTPD3 = recombinant human ENTPD3 (Homo sapiens (Human), UniProt O75355); test: Recombinant human ENTPD3 malachite green assay; format: biochemical
Chain of recombinant human ENTPD3 (O75355 whole entry): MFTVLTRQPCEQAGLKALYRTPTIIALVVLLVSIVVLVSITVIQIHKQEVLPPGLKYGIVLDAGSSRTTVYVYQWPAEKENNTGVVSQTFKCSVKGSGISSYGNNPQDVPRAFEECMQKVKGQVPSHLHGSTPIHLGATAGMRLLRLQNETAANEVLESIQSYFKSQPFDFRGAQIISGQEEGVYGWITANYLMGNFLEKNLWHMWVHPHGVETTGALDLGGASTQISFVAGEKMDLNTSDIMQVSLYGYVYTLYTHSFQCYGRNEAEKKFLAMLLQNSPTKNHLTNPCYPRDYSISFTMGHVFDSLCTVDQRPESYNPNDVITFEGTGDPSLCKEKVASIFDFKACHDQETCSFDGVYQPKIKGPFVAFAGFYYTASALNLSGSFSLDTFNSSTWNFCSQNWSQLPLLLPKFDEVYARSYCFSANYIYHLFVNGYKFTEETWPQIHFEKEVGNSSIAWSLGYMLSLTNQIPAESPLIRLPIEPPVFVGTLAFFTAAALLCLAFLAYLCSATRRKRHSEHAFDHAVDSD
Procedure: as §2

IC50 (recombinant CD73 [3]): 0.17 nM
IC50 (mouse plasma CD73): 1 nM
EC50 (Human CD8+ T cells [4]; 10 μM AMP, ELISA, read-out: EC50 for Granzyme B production): 5.6 nM
EC50 (Human CD8+ T cells [4]; 10 μM AMP, ELISA, read-out: EC50 for IFNγ production): 4.5 nM
EC50 (Human CD8+ T cells [4]; 20 μM AMP, flow cytometry, read-out: EC50 for CD8+ T cell activation (CD25 expression)): 9.6 nM
inhibition of CD73 activity in esophageal cancer serum ([5]; esophageal cancer serum): sub-nanomolar
inhibition of CD73 activity in HNSCC serum ([5]; head and neck squamous cell carcinoma serum): sub-nanomolar
inhibition of CD73 activity in ovarian cancer serum ([5]; ovarian cancer serum): sub-nanomolar
inhibition of CD73 activity in TNBC serum ([5]; triple-negative breast cancer serum): sub-nanomolar
IC50 (human CD39): > 10000 nM
IC50 [6]: 0.21 nM
IC50 (human plasma CD73): 0.38 nM
IC50 (recombinant CD73 [7]): 0.17 nM
IC50 (recombinant human ENTPD3): > 10000 nM
Structure (SMILES): C#C[C@@]1(O)[C@@H](COC(Cc2ccc(N3CCCNC3=O)cc2)(C(=O)O)C(=O)O)O[C@@H](n2cnc3c(N)nc(Cl)nc32)[C@@H]1O [Compound 9, 2-(((2R,3S,4R,5R)-5-(6-amino-2-chloro-9H-purin-9-yl)-3-ethynyl-3,4-dihydroxytetrahydrofuran-2-yl)methoxy)-2-(4-(2-oxotetrahydropyrimidin-1 (2H)-yl)benzyl)malonic acid]
% divided cells of human CD8+ T cells (Human CD8+ T cells [1]): comparable % divided cells
Safety Panel targets inhibited at >50% [2]: 1/87
EC50 (Human CD8+ T cells [4]; 20 μM AMP, flow cytometry, read-out: EC50 for CD8+ T cell proliferation): 11.6 nM
% cell survival of A375 cells (A375 cells): comparable % cell survival
